Test system: P12-Ichikawa
Assay: cell viability relative to DMSO control; higher = less cytotoxic
Conditions: 48 h
In short: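 NOMO1 or SEM cells were plated at 500 cells/well and P12-Ichikawa cells at 1000 cells/well in 1536-well plates (5 μl), after each leukemia line had been adapted for at least four passages in each medium. Pin dosing delivered library compounds in DMSO at 11 threefold concentrations, 47 μM to 0.79 nM. CellTiter-Glo One luminescence was read after 48 h at 37°C. Viability is reported as a per-plate percentage of DMSO wells, with cell-free wells as background.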

[1] = HPLM + 10% dialyzed FBS, 0.000781 µM
[2] = HPLM + 10% dialyzed FBS, 0.00234 µM
[3] = HPLM + 10% dialyzed FBS, 0.00702 µM
[4] = HPLM + 10% dialyzed FBS, 0.0211 µM
[5] = HPLM + 10% dialyzed FBS, 0.0632 µM
[6] = HPLM + 10% dialyzed FBS, 0.19 µM
[7] = HPLM + 10% dialyzed FBS, 0.569 µM
[8] = HPLM + 10% dialyzed FBS, 1.71 µM
[9] = HPLM + 10% dialyzed FBS, 5.12 µM
[10] = HPLM + 10% dialyzed FBS, 15.4 µM
[11] = HPLM + 10% dialyzed FBS, 46.1 µM
[12] = RPMI 5 mM glucose + 10% FBS, 0.000781 µM
[13] = RPMI 5 mM glucose + 10% FBS, 0.00234 µM
[14] = RPMI 5 mM glucose + 10% FBS, 0.00702 µM
[15] = RPMI 5 mM glucose + 10% FBS, 0.0211 µM
[16] = RPMI 5 mM glucose + 10% FBS, 0.0632 µM
[17] = RPMI 5 mM glucose + 10% FBS, 0.19 µM
[18] = RPMI 5 mM glucose + 10% FBS, 0.569 µM
[19] = RPMI 5 mM glucose + 10% FBS, 1.71 µM
[20] = RPMI 5 mM glucose + 10% FBS, 5.12 µM
[21] = RPMI 5 mM glucose + 10% FBS, 15.4 µM
[22] = RPMI 5 mM glucose + 10% FBS, 46.1 µM
[23] = RPMI 5 mM glucose + 10% dialyzed FBS, 0.000781 µM
[24] = RPMI 5 mM glucose + 10% dialyzed FBS, 0.00234 µM
[25] = RPMI 5 mM glucose + 10% dialyzed FBS, 0.00702 µM
[26] = RPMI 5 mM glucose + 10% dialyzed FBS, 0.0211 µM
[27] = RPMI 5 mM glucose + 10% dialyzed FBS, 0.0632 µM
[28] = RPMI 5 mM glucose + 10% dialyzed FBS, 0.19 µM
[29] = RPMI 5 mM glucose + 10% dialyzed FBS, 0.569 µM
[30] = RPMI 5 mM glucose + 10% dialyzed FBS, 1.71 µM
[31] = RPMI 5 mM glucose + 10% dialyzed FBS, 5.12 µM
[32] = RPMI 5 mM glucose + 10% dialyzed FBS, 15.4 µM
[33] = RPMI 5 mM glucose + 10% dialyzed FBS, 46.1 µM

COC(=O)Nc1nc2cc(C(=O)c3ccc(F)cc3)ccc2[nH]1
cell viability [1]: 106% | cell viability [2]: 106% | cell viability [3]: 100% | cell viability [4]: 106% | cell viability [5]: 101% | cell viability [6]: 104% | cell viability [7]: 78.2% | cell viability [8]: 42.1% | cell viability [9]: 23% | cell viability [10]: 60.6% | cell viability [11]: 40.8% | cell viability [12]: 97% | cell viability [13]: 99.2% | cell viability [14]: 101% | cell viability [15]: 99.1% | cell viability [16]: 95.2% | cell viability [17]: 92.7% | cell viability [18]: 81.8% | cell viability [19]: 47.2% | cell viability [20]: 26.6% | cell viability [21]: 74.2% | cell viability [22]: 50% | cell viability [23]: 95.5% | cell viability [24]: 94.6% | cell viability [25]: 92.9% | cell viability [26]: 96.4% | cell viability [27]: 103% | cell viability [28]: 91.1% | cell viability [29]: 82% | cell viability [30]: 49.3% | cell viability [31]: 33.9% | cell viability [32]: 73.9% | cell viability [33]: 76.7%

CC(C)(S)[C@@H](N)C(=O)O
cell viability [1]: 108% | cell viability [2]: 112% | cell viability [3]: 115% | cell viability [4]: 120% | cell viability [5]: 106% | cell viability [6]: 120% | cell viability [7]: 113% | cell viability [8]: 122% | cell viability [9]: 117% | cell viability [10]: 115% | cell viability [11]: 108% | cell viability [12]: 100% | cell viability [13]: 109% | cell viability [14]: 114% | cell viability [15]: 121% | cell viability [16]: 96.1% | cell viability [17]: 112% | cell viability [18]: 118% | cell viability [19]: 121% | cell viability [20]: 115% | cell viability [21]: 125% | cell viability [22]: 99.5% | cell viability [23]: 104% | cell viability [24]: 110% | cell viability [25]: 103% | cell viability [26]: 115% | cell viability [27]: 98% | cell viability [28]: 109% | cell viability [29]: 107% | cell viability [30]: 112% | cell viability [31]: 114% | cell viability [32]: 111% | cell viability [33]: 95.8%

CC[S+](=O)([O-])Nc1ccc2c(c1)/C(=C(/Nc1ccc(CN3CCCCC3)cc1)c1ccccc1)C(=O)N2
cell viability [1]: 106% | cell viability [2]: 114% | cell viability [3]: 115% | cell viability [4]: 109% | cell viability [5]: 111% | cell viability [6]: 12.9% | cell viability [7]: 11.6% | cell viability [8]: 18.7% | cell viability [9]: 27.1% | cell viability [10]: 54.3% | cell viability [11]: 32.2% | cell viability [12]: 127% | cell viability [13]: 116% | cell viability [14]: 120% | cell viability [15]: 119% | cell viability [16]: 114% | cell viability [17]: 14.3% | cell viability [18]: 17.4% | cell viability [19]: 30.7% | cell viability [20]: 35.3% | cell viability [21]: 51.4% | cell viability [22]: 21.4% | cell viability [23]: 123% | cell viability [24]: 117% | cell viability [25]: 121% | cell viability [26]: 118% | cell viability [27]: 121% | cell viability [28]: 22.6% | cell viability [29]: 25.8% | cell viability [30]: 47.3% | cell viability [31]: 52% | cell viability [32]: 59.8% | cell viability [33]: 18.8%

COc1ccc(C(=O)c2c(C)n(CCN3CCOCC3)c3ccccc23)cc1
cell viability [1]: 94.2% | cell viability [2]: 104% | cell viability [3]: 101% | cell viability [4]: 95.2% | cell viability [5]: 106% | cell viability [6]: 111% | cell viability [7]: 103% | cell viability [8]: 109% | cell viability [9]: 98.3% | cell viability [10]: 111% | cell viability [11]: 111% | cell viability [12]: 89.3% | cell viability [13]: 91.1% | cell viability [14]: 95% | cell viability [15]: 100% | cell viability [16]: 97.5% | cell viability [17]: 96.7% | cell viability [18]: 101% | cell viability [19]: 113% | cell viability [20]: 84.4% | cell viability [21]: 110% | cell viability [22]: 98.9% | cell viability [23]: 96.5% | cell viability [24]: 93.2% | cell viability [25]: 99.4% | cell viability [26]: 98.2% | cell viability [27]: 99.3% | cell viability [28]: 102% | cell viability [29]: 98.4% | cell viability [30]: 93.8% | cell viability [31]: 104% | cell viability [32]: 112% | cell viability [33]: 109%

CCN(CCO)CCCOc1ccc2c(Nc3cc(CC(=O)Nc4cccc(F)c4)[nH]n3)ncnc2c1
cell viability [1]: 99.6% | cell viability [2]: 99.8% | cell viability [3]: 107% | cell viability [4]: 109% | cell viability [5]: 104% | cell viability [6]: 43.9% | cell viability [7]: 11.6% | cell viability [8]: 10.8% | cell viability [9]: 9.25% | cell viability [10]: 9.18% | cell viability [11]: 10.6% | cell viability [12]: 102% | cell viability [13]: 110% | cell viability [14]: 115% | cell viability [15]: 117% | cell viability [16]: 108% | cell viability [17]: 45.4% | cell viability [18]: 16.7% | cell viability [19]: 14.1% | cell viability [20]: 11% | cell viability [21]: 10.5% | cell viability [22]: 16.3% | cell viability [23]: 102% | cell viability [24]: 112% | cell viability [25]: 111% | cell viability [26]: 111% | cell viability [27]: 114% | cell viability [28]: 68.6% | cell viability [29]: 20.7% | cell viability [30]: 21% | cell viability [31]: 21.1% | cell viability [32]: 18.5% | cell viability [33]: 26.9%

CC[N+](CC)(CC)CCOc1cccc(OCC[N+](CC)(CC)CC)c1OCC[N+](CC)(CC)CC
cell viability [1]: 116% | cell viability [2]: 109% | cell viability [3]: 101% | cell viability [4]: 107% | cell viability [5]: 127% | cell viability [6]: 120% | cell viability [7]: 98.9% | cell viability [8]: 91.6% | cell viability [9]: 100% | cell viability [10]: 107% | cell viability [11]: 97% | cell viability [12]: 124% | cell viability [13]: 115% | cell viability [14]: 112% | cell viability [15]: 124% | cell viability [16]: 114% | cell viability [17]: 115% | cell viability [18]: 107% | cell viability [19]: 108% | cell viability [20]: 111% | cell viability [21]: 110% | cell viability [22]: 103% | cell viability [23]: 108% | cell viability [24]: 101% | cell viability [25]: 108% | cell viability [26]: 109% | cell viability [27]: 120% | cell viability [28]: 109% | cell viability [29]: 100% | cell viability [30]: 104% | cell viability [31]: 103% | cell viability [32]: 95.2% | cell viability [33]: 100%

CC1=C(/C=C/C(C)=C/C=C/C(C)=C\C(=O)O)C(C)(C)CCC1
cell viability [1]: 88.5% | cell viability [2]: 91.7% | cell viability [3]: 90.2% | cell viability [4]: 93.4% | cell viability [5]: 95.7% | cell viability [6]: 92.6% | cell viability [7]: 96.4% | cell viability [8]: 92.2% | cell viability [9]: 97.3% | cell viability [10]: 95.5% | cell viability [11]: 91.3% | cell viability [12]: 76.1% | cell viability [13]: 88.5% | cell viability [14]: 82.7% | cell viability [15]: 91% | cell viability [16]: 85.5% | cell viability [17]: 89.7% | cell viability [18]: 85.4% | cell viability [19]: 79.6% | cell viability [20]: 77.4% | cell viability [21]: 84.5% | cell viability [22]: 82.1% | cell viability [23]: 80.4% | cell viability [24]: 89.9% | cell viability [25]: 85% | cell viability [26]: 90% | cell viability [27]: 86.7% | cell viability [28]: 86.7% | cell viability [29]: 91.9% | cell viability [30]: 90.5% | cell viability [31]: 83.7% | cell viability [32]: 84.5% | cell viability [33]: 85.4%
